From BigSolDB 2.1

O=C(O)COc1ccc(Cl)cc1Cl
solubility (mole fraction)
Settings	in tetrachloromethane	in toluene
294.15 K	–	0.00118
298.65 K	–	0.00178
303.15 K	–	0.00264
303.65 K	4.99e-05	–
308.45 K	–	0.00399
310.65 K	0.000131	–
313.25 K	–	0.00547
313.55 K	0.000193	–
318.75 K	0.000414	0.00821
323.05 K	0.00074	–
323.15 K	–	0.0109
328.25 K	0.00146	–
328.85 K	–	0.015
332.95 K	0.00259	–
335.35 K	–	0.0207
338.05 K	0.00497	0.0235
